This is an account of results in patent US20230040770A1, “HETEROCYCLIC COMPOUND AND USE THEREOF” (TAKEDA PHARMACEUTICAL COMPANY LIMITED, priority 2019, published 2023).

The assay addresses T1, human orexin type 2 receptor (Homo sapiens, UniProt O43614).
T1 construct: expressed in transfected cells
T1 sequence (O43614 1-444): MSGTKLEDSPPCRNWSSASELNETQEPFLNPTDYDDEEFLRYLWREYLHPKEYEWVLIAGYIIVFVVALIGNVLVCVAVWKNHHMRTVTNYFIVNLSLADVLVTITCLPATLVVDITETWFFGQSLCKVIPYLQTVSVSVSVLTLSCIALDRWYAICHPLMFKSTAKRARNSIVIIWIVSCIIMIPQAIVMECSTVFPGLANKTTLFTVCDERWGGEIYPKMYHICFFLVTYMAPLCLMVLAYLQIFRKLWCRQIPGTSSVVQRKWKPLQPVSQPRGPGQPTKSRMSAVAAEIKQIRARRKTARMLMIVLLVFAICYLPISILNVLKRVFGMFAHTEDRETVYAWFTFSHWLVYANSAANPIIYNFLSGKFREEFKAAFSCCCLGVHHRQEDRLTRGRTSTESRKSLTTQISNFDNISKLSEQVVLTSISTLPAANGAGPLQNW
As to the kind of experiment: Measurement of orexin type 2 receptor agonist activity (calcium indicator fluorescence, CHO cells forcibly expressing human OX2 receptor). The class given is cell-based. The conditions noted are these: compound at 3 μM; 0% = DMSO, 100% = orexin A (human) 10 nM. The method in brief:
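Agonist response normalised between vehicle (0%) and orexin A at 10 nM final (100%), from kinetic Fluo-4 calcium signals recorded for about 2 min after compound addition. Cells: stable human OX2R CHO clone, dye-loaded 30 min at 37 °C plus 30 min at room temperature.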

On to `Cc1cccc(-c2cccc(C[C@H]3[C@@H](NS(C)(=O)=O)C(F)(F)CN3C(=O)C(C)(C)O)c2F)c1` [Example 25, N-[(2S,3R)-4,4-difluoro-2-[(2-fluoro-3′-methyl[1,1′-biphenyl]-3-yl)methyl]-1-(2-hydroxy-2-methylpropanoyl)pyrrolidin-3-yl]methanesulfonamide], for which the “OX2R agonist activity (3 μM, %)” value was 108%.

Turning to `CN(C)S(=O)(=O)N[C@@H]1[C@H](Cc2cccc(-c3cc(F)cc(F)c3)c2F)N(C(=O)N2CCC2)CC1(F)F` [Example 548, N′-{(2S,3R)-1-(azetidine-1-carbonyl)-4,4-difluoro-2-[(2,3′,5′-trifluoro[1,1′-biphenyl]-3-yl)methyl]pyrrolidin-3-yl}-N,N-dimethylsulfuric diamide], the “OX2R agonist activity (3 μM, %)” value turned out to be 94%.

`CCS(=O)(=O)N[C@@H]1[C@H](Cc2cccc(-c3cccc(OC(F)F)c3)c2F)N(C(=O)C23CC(C2)C3)CC1(F)F` [Example 551, N-[(2S,3R)-1-(bicyclo[1.1.1]pentane-1-carbonyl)-2-{[3′-(difluoromethxoy)-2-fluoro[1,1′-biphenyl]-3-yl]methyl}-4,4-difluoropyrrolidin-3-yl]ethanesulfonamide]: the “OX2R agonist activity (3 μM, %)” value was determined as 93%.

As to `CS(=O)(=O)N[C@@H]1[C@H](Cc2cccc(-c3cccc(F)c3F)c2F)N(C(=O)C2CC(F)C2)CC1(F)F` (stereo partly drawn) [Example 436, N-{(2S,3R)-4,4-difluoro-1-(3-fluorocyclobutane-1-carbonyl)-2-[(2,2′,3′-trifluoro[1,1′-biphenyl]-3-yl)methyl]pyrrolidin-3-yl}methanesulfonamide], the “OX2R agonist activity (3 μM, %)” value is 92%.

On to `Cc1cccc(-c2cccc(C[C@H]3[C@@H](NS(=O)(=O)N(C)C)C(F)(F)CN3C(=O)N(C)C)c2F)c1F` [Example 531, (2S,3R)-2-[(2,2′-difluoro-3′-methyl[1,1′-biphenyl]-3-yl)methyl]-3-[(dimethylsulfamoyl)amino]-4,4-difluoro-N,N-dimethylpyrrolidine-1-carboxamide], for which the “OX2R agonist activity (3 μM, %)” value was 95%.

Take `CC(C)C(=O)N1C[C@H](F)[C@H](NS(C)(=O)=O)[C@@H]1Cc1cccc(-c2cccc(F)c2F)c1F` [Example 314, N-{(2S,3R,4S)-4-fluoro-1-(2-methylpropanoyl)-2-[(2,2′,3′-trifluoro[1,1′-biphenyl]-3-yl)methyl]pyrrolidin-3-yl}methanesufonamide]: the “OX2R agonist activity (3 μM, %)” value amounted to 109%.

As for `CS(=O)(=O)N[C@@H]1[C@H](Cc2cccc(-c3cccc(Cl)c3F)c2F)N(C(=O)C2CCO2)CC1(F)F` (stereo partly drawn) [Example 263, N-[(2S,3R)-2-[(3′-chloro-2,2′-difluoro[1,1′-biphenyl]-3-yl)methyl]-4,4-difluoro-1-(oxetane-2-carbonyl)pyrrolidin-3-yl]methanesulfonamide], the “OX2R agonist activity (3 μM, %)” value amounted to 103%.

With `CC(C)C(=O)N1C[C@H](F)[C@H](NS(=O)(=O)C2CC2)[C@@H]1Cc1cccc(-c2cccc(F)c2)c1F` [Example 382, N-[(2S,3R,4S)-2-[(2,3′-difluoro[1,1′-biphenyl]-3-yl)methyl]-4-fluoro-1-(2-methylpropanoyl)pyrrolidin-3-yl]cyclopropanesulfonamide], the “OX2R agonist activity (3 μM, %)” value worked out at 102%.

`CS(=O)(=O)N[C@@H]1[C@H](Cc2cccc(-c3cc(F)cc(Cl)c3)c2F)N(C(=O)C2CC2)CC1(F)F` [Example 245, N-[(2S,3R)-2-[(3′-chloro-2,5′-difluoro[1,1′-biphenyl]-3-yl)methyl]-1-(cyclopropanecarbonyl)-4,4-difluoropyrrolidin-3-yl]methanesulfonamide]: the “OX2R agonist activity (3 μM, %)” value is recorded as 94%.

Take `O=C(N1C[C@H](F)[C@H](NS(=O)(=O)C2CC2)[C@@H]1Cc1cccc(-c2cccc(F)c2)c1F)C12CC(C1)C2` [Example 384, N-{(2S,3R,4S)-1-(bicyclo[1.1.1]pentane-1-carbonyl)-2-[(2,3′-difluoro[1,1′-biphenyl]-3-yl)methyl]-4-fluoropyrrolidin-3-yl}cyclopropanesulfonamide]: the “OX2R agonist activity (3 μM, %)” value was 98%.

As for `CS(=O)(=O)N[C@@H]1[C@H](Cc2cccc(-c3cccc(Cl)c3F)c2F)N(C(=O)C2CCO2)CC1(F)F` (stereo partly drawn) [Example 264, N-[(2S,3R)-2-[(3′-chloro-2,2′-difluoro[1,1′-biphenyl]-3-yl)methyl]-4,4-difluoro-1-(oxetane-2-carbonyl)pyrrolidin-3-yl]methanesulfonamide], the “OX2R agonist activity (3 μM, %)” value was determined as 98%.

`Cc1cccc(-c2cccc(C[C@H]3[C@@H](NS(=O)(=O)N(C)C)C(F)(F)CN3C(=O)C3CCO3)c2F)c1` (stereo partly drawn) [Example 432, N′-[(2S,3R)-4,4-difluoro-2-[(2-fluoro-3′-methyl[1,1′-biphenyl]-3-yl)methyl]-1-(oxetane-2-carbonyl)pyrrolidin-3-yl]-N,N-dimethylsulfuric diamide]: the “OX2R agonist activity (3 μM, %)” value is given as 95%.

As for `CCS(=O)(=O)N[C@@H]1[C@H](Cc2cccc(-c3cccc(C)c3)c2F)N(C(=O)C2CCO2)CC1(F)F` (stereo partly drawn) [Example 277, N-[(2S,3R)-4,4-difluoro-2-[(2-fluoro-3′-methyl[1,1′-biphenyl]-3-yl)methyl]-1-(oxetane-2-carbonyl)pyrrolidin-3-yl]ethanesulfonamide], the “OX2R agonist activity (3 μM, %)” value amounted to 94%.

Turning to `CC(C)C(=O)N1C[C@H](F)[C@H](NS(C)(=O)=O)[C@@H]1Cc1cccc(-c2cc(F)cc(F)c2)c1F` [Example 316, N-{(2S,3R,4S)-4-fluoro-1-(2-methylpropanoyl)-2-[(2,3′,5′-trifluoro[1,1′-biphenyl]-3-yl)methyl]pyrrolidin-3-yl}methanesulfonamide], the “OX2R agonist activity (3 μM, %)” value was found to be 101%.

For the compound `CCS(=O)(=O)N[C@@H]1[C@H](Cc2cccc(-c3cc(F)cc(F)c3)c2F)N(C(=O)[C@H]2CCCO2)CC1(F)F` [Example 454, N-{(2S,3R)-4,4-difluoro-1-[(2R)-oxolane-2-carbonyl]-2-[(2,3′,5′-trifluoro[1,1′-biphenyl]-3-yl)methyl]pyrrolidin-3-yl}ethanesulfonamide], the “OX2R agonist activity (3 μM, %)” value is given as 84%.

Take `CCS(=O)(=O)N[C@H]1[C@@H](F)CN(C(=O)C2CCO2)[C@H]1Cc1cccc(-c2ccc(F)c(C)c2)c1F` (stereo partly drawn) [Example 500, N-[(2S,3R,4S)-2-[(2,4′-difluoro-3′-methyl[1,1′-biphenyl]-3-yl)methyl]-4-fluoro-1-(oxetane-2-carbonyl)pyrrolidin-3-yl]ethanesulfonamide]: the “OX2R agonist activity (3 μM, %)” value came out at 98%.

As for `Cc1cccc(-c2cccc(C[C@H]3[C@@H](NS(=O)(=O)N(C)C)C(F)(F)CN3C(=O)C3(O)CCC3)c2F)c1` [Example 427, N′-[(2S,3R)-4,4-difluoro-2-[(2-fluoro-3′-methyl[1,1′-biphenyl]-3-yl)methyl]-1-(1-hydroxycyclobutane-1-carbonyl)pyrrolidin-3-yl]-N,N-dimethylsulfuric diamide], the “OX2R agonist activity (3 μM, %)” value was 99%.

As to `Cc1cc(F)cc(-c2cccc(C[C@H]3[C@@H](NS(=O)(=O)N(C)C)C(F)(F)CN3C(=O)[C@H]3CCO3)c2F)c1` [Example 540, N′-{(2S,3R)-2-[(2,3′-difluoro-5′-methyl[1,1′-biphenyl]-3-yl)methyl]-4,4-difluoro-1-[(2R)-oxetane-2-carbonyl]pyrrolidin-3-yl}-N,N-dimethylsulfuric diamide], the “OX2R agonist activity (3 μM, %)” value is given as 100%.

With `CCS(=O)(=O)N[C@H]1[C@@H](F)CN(C(=O)C(C)C)[C@H]1Cc1cccc(-c2cc(F)ccc2F)c1F` [Example 292, N-{(2S,3R,4S)-4-fluoro-1-(2-methylpropanoyl)-2-[(2,2′,5′-trifluoro[1,1′-biphenyl]-3-yl)methyl]pyrrolidin-3-yl}ethanesulfonamide], the “OX2R agonist activity (3 μM, %)” value came to 87%.

As to `CCS(=O)(=O)N[C@@H]1[C@H](Cc2cccc(-c3cccc(C(F)F)c3)c2F)N(C(=O)C23CC(C2)C3)CC1(F)F` [Example 509, N-[(2S,3R)-1-(bicyclo[1.1.1]pentane-1-carbonyl)-2-{[3′-(difluoromethyl)-2-fluoro[1,1′-biphenyl]-3-yl]methyl}-4,4-difluoropyrrolidin-3-yl]ethanesulfonamide], the “OX2R agonist activity (3 μM, %)” value came out at 85%.

Consider `CCS(=O)(=O)N[C@@H]1[C@H](Cc2cccc(-c3ccccc3)c2F)N(C(=O)C2CCO2)CC1(F)F` (stereo partly drawn) [Example 45, N-[(2S,3R)-4,4-difluoro-2-[(2-fluoro[1,1′-biphenyl]-3-yl)methyl]-1-(oxetane-2-carbonyl)pyrrolidin-3-yl]ethanesulfonamide], for which the “OX2R agonist activity (3 μM, %)” value was 98%.

As for `O=C(N1CCC1)N1CC(F)(F)[C@H](NS(=O)(=O)C2CC2)[C@@H]1Cc1cccc(-c2cc(F)cc(F)c2)c1F` [Example 525, N-{(2S,3R)-1-(azetidine-1-carbonyl)-4,4-difluoro-2-[(2,3′,5′-trifluoro[1,1′-biphenyl]-3-yl)methyl]pyrrolidin-3-yl]cyclopropanesulfonamide], the “OX2R agonist activity (3 μM, %)” value was determined as 85%.

As for `CS(=O)(=O)N[C@@H]1[C@H](Cc2cccc(-c3ccccc3)c2F)N(C(=O)C2CC(F)C2)CC1(F)F` (stereo partly drawn) [Example 441, N-[(2S,3R)-4,4-difluoro-2-[(2-fluoro[1,1′-biphenyl]-3-yl)methyl]-1-(3-fluorocyclobutane-1-carbonyl)pyrrolidin-3-yl]methanesulfonamide], the “OX2R agonist activity (3 μM, %)” value is 93%.
